Read-outs that look alike come from different tables or passages of the source.
Tests used:
[1] = target: BTK enzyme (recombinant full-length BTK, hBTK) (Homo sapiens (Human), UniProt Q06187); assay: BTK enzymatic activity LANCE TR-FRET assay; type: biochemical; conditions: 50 pM hBTK, 25 μM ATP, 2 μM biotin-A5-peptide; compound range 1 μM to 0.017 nM; read-out: BTK binding IC50
Experimental: Btk Enzyme Activity Assay Methods
BTK enzymatic activity was determined with the LANCE (Lanthanide Chelate Excite) TR-FRET (Time-resolved fluorescence resonance energy transfer) assay. […] Phosphorylation reactions were allowed to proceed for 120 minutes. […] After 60 minutes incubation with detection reagents, reaction plates were read on a PerkinElmer EnVision plate reader using standard TR-FRET protocol. […] IC50 values were determined by 4 parameter robust fit of TR-FRET ratio values vs. (Log10) compound concentrations.

[2] = tested on: adenosine uptake into HeLa cells; assay: [3H]Adenosine uptake assay in HeLa cells; type: cell-based; conditions: [3H]adenosine accumulation in HeLa cells, compound range 10 μM to 0.032 nM, read-out: ADU inhibition IC50
Experimental: Compounds are also screened in an adenosine uptake functional cellular assay using the protocol described below:
[^3H]Adenosine Uptake Assay Methods
Adenosine uptake activity was determined by monitoring the accumulation of tritiated adenosine into HeLa cells (ATCC catalog # CCL-2) using a PMT-based radiometric detection instrument. In this assay, the potency (IC50) of each compound was determined from a ten point (1:3 serial dilution; final compound concentration range in assay from 10 µM to […]) titration curve using the following outlined procedure. To each well of a 96-well CytoStar-T scintillating microplate (Perkin Elmer Catalog # RPNQ0163), 25 000 HeLa cells in 100 µL of growth medium comprising: Minimum Essential Media (Life Technologies Catalog #11095-080)+10% (v/v) foetal bovine serum (FBS; Sigma Aldrich Catalog # F2442) was added. These cells were incubated overnight at 37° C. in a humidified atmosphere with 5% (v/v) CO2. After this time the growth medium was removed and replaced with 40 μL assay medium comprising: Hanks balanced salts solution (HBSS; Thermo Fisher Catalog # SH30268.01)+5% (v/v) FBS. Compound stock solutions in DMSO were diluted in assay medium to 2.5× final compound concentration maintaining a constant DMSO concentration of 0.25% (v/v). 40 μL of compound in assay medium was dispensed into individual wells of the Cytostar-T plates and the plates were incubated for 30 minutes under ambient laboratory conditions. Following this incubation, 20 μL of 500 nM [^3H] adenosine (American Radiolabeled Chemicals Inc. […] The amount of radiolabel accumulation was then determined using a Perkin Elmer Topcount NXT microplate reader. In brief, HeLa cells adhere to the bottom of the Cytostar-T plate, uptake of [^3H]adenosine into these cells brings the radiolabel into sufficient proximity to excite the scintillant in the base of the plates. These events are captured by single PMT, time-resolved coincidence counting. IC50 values were determined by 4 parameter robust fit of counts per second values vs. (Log10) compound concentrations.

BTK enzyme (recombinant full-length BTK, hBTK), sequence (Q06187 whole entry): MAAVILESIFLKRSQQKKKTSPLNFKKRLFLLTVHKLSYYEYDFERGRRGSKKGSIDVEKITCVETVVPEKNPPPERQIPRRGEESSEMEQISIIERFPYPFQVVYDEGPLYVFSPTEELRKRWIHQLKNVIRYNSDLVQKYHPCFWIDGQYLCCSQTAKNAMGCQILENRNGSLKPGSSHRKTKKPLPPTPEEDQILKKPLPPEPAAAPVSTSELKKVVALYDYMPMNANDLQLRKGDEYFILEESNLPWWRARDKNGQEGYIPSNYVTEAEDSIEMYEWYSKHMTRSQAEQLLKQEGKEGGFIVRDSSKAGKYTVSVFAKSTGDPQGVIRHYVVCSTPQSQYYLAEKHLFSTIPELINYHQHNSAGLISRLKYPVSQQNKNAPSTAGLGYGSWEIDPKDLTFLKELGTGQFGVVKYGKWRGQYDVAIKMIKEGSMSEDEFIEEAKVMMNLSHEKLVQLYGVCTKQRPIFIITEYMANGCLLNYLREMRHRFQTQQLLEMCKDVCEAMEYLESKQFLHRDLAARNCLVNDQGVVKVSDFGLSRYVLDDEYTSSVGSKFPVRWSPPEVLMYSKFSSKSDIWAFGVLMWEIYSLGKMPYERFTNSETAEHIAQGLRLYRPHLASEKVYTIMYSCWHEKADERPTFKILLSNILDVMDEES

Structure (SMILES)	IC50 [1]	IC50 [2]	IC50 ([2]; Homo sapiens, HeLa)
C[C@](O)(c1ccc(-c2nc([C@@H]3CC[C@H]4CCC(=O)N4C3)n3c(Cl)cnc(N)c23)cc1)c1cccc(C(F)(F)F)c1 [Example 5, (6R,8aS)-6-(8-amino-5-chloro-1-(4-((S)-1-hydroxy-1-(3-(trifluoromethyl)phenyl)ethyl)phenyl)imidazo[1,5-a]pyrazin-3-yl)hexahydroindolizin-3(2H)-one]	377 nM		553 nM
CC(O)(c1ccc(-c2nc([C@@H]3CC[C@H]4CCC(=O)N4C3)n3ccnc(N)c23)cc1)c1ccccc1C(F)(F)F (stereo partly drawn) [Example 31, (6R,8aS)-6-[8-amino-1-(4-{1-hydroxy-1-[2-(trifluoromethyl)phenyl]ethyl}phenyl)imidazo [1,5-a]pyrazin-3-yl]hexahydroindolizin-3(2H)-one]	78.3 nM		4810 nM
C[C@](O)(c1ccc(-c2nc([C@@H]3CC[C@H]4CCC(=O)N4C3)n3ccnc(N)c23)cc1)c1cccc(-c2ccccc2)c1 [Example 58, (6R,8aS)-6-(8-amino-1-{4-[(1S)-1-biphenyl-3-yl-1-hydroxyethyl]phenyl}imidazo[1,5-a]pyrazin-3-yl)hexahydroindolizin-3(2H)-one]	63.1 nM		450 nM
COc1cc(-c2nc([C@@H]3CC[C@H]4CCC(=O)N4C3)n3ccnc(N)c23)ccc1C(C)(O)c1cccc(C(F)(F)F)c1 (stereo partly drawn) [Example 65, (6R,8aS)-6-[8-amino-1-(4-{1-hydroxy-1-[3-(trifluoromethyl)phenyl]ethyl}-3-methoxyphenyl)imidazo [1,5-a]pyrazin-3-yl]hexahydroindolizin-3(2H)-one]	7 nM	10000 nM	
C[C@@](O)(c1ccccc1)c1ccc(-c2nc([C@@H]3CC[C@H]4CCC(=O)N4C3)n3ccnc(N)c23)cc1 [Example 2, (6R,8aS)-6-(8-amino-1-(4-((R)-1-hydroxy-1-phenylethyl)phenyl)imidazo[1,5-a]pyrazin-3-yl)hexahydroindolizin-3(2H)-one]	1.6 nM		6350 nM
CCOc1cc(C(C)(O)c2cccc(C(F)(F)F)c2)cc(F)c1-c1nc([C@@H]2CC[C@H]3CCC(=O)N3C2)n2ccnc(N)c12 (stereo partly drawn) [Example 22, (6R,8aS)-6-(8-amino-1-(2-ethoxy-6-fluoro-4-(1-hydroxy-1-(3-(trifluoromethyl)phenyl)ethyl)phenyl)imidazo[1,5-a]pyrazin-3-yl)hexahydroindolizin-3(2H)-one]	1.7 nM		3820 nM
Cc1cccc([C@@](C)(O)c2ccc(-c3nc([C@@H]4CC[C@H]5CCC(=O)N5C4)n4ccnc(N)c34)cc2)c1 [Example 53, (6R,8aS)-6-(8-amino-1-{4-[(1S)-1-hydroxy-1-(3-methylphenyl)ethyl]phenyl}imidazo[1,5-a]pyrazin-3-yl)hexahydroindolizin-3(2H)-one]	6.5 nM		671 nM
Cc1ccccc1[C@](C)(O)c1ccc(-c2nc([C@@H]3CC[C@H]4CCC(=O)N4C3)n3ccnc(N)c23)cc1 [Example 48, (6R,8aS)-6-(8-amino-1-{4-[(1R)-1-hydroxy-1-(2-methylphenyl)ethyl]phenyl}imidazo[1,5-a]pyrazin-3-yl)hexahydroindolizin-3(2H)-one]	2.5 nM		3300 nM

The next lines start with the values.

IC50 [1]	IC50 [2]	IC50 ([2]; Homo sapiens, HeLa)	Structure (SMILES)
12.4 nM	1470 nM		Nc1nccn2c([C@@H]3CC[C@H]4CCC(=O)N4C3)nc(-c3ccc(C(O)c4cc(C(F)(F)F)ccc4F)cc3)c12 (stereo partly shown) [Example 128]
20.4 nM	469 nM		Nc1nccn2c([C@@H]3CC[C@H]4CCC(=O)N4C3)nc(-c3ccc(C(O)c4cccc(C(F)(F)F)c4)cc3)c12 (stereo partly drawn) [Example 72, (6R,8aS)-6-[8-amino-1-(4-{hydroxy[3-(trifluoromethyl)phenyl]methyl}phenyl)imidazo [1,5-a]pyrazin-3-yl]hexahydroindolizin-3(2H)-one]
3.8 nM		5460 nM	COc1cc([C@@](C)(O)c2cccc(C(F)(F)F)c2)ccc1-c1nc([C@@H]2CC[C@H]3CC(C)(C)C(=O)N3C2)n2ccnc(N)c12 [Example 206, (6R,8aS)-6-[8-amino-1-(4-{(1S)-1-hydroxy-1-[3-(trifluoromethyl)phenyl]ethyl}-2-methoxyphenyl)imidazo [1,5-a]pyrazin-3-yl]-2,2-dimethylhexahydroindolizin-3(2H)-one]
30.9 nM	2140 nM		C[C@](O)(c1ccc(-c2nc([C@@H]3CC[C@H]4CCC(=O)N4C3)n3ccnc(N)c23)cc1)c1ccc(C(F)(F)F)s1 [Example 113, (6R,8aS)-6-[8-amino-1-(4-{(1S)-1-hydroxy-1-[5-(trifluoromethyl)thiophen-2-yl]ethyl}phenyl)imidazo [1,5-a]pyrazin-3-yl]hexahydroindolizin-3(2H)-one]
20.6 nM	2410 nM		CCOc1cc(C(C)(O)c2cccc(C(F)(F)F)c2)ccc1-c1nc([C@@H]2CC[C@H]3CCC(=O)N3C2)n2ccnc(N)c12 (stereo partly drawn) [Example 167, (6R,8aS)-6-[8-amino-1-(2-ethoxy-4-{1-hydroxy-1-[3-(trifluoromethyl)phenyl]ethyl}phenyl)imidazo [1,5-a]pyrazin-3-yl]hexahydroindolizin-3(2H)-one]
1000 nM		487 nM	Cc1cc([C@@](C)(O)c2cccc(C(F)(F)F)c2)ccc1-c1nc([C@@H]2CC[C@H]3CCC(=O)N3C2)n2ccnc(N)c12 [Example 103, (6R,8aS)-6-[8-amino-1-(4-{(1R)-1-hydroxy-1-[3-(trifluoromethyl)phenyl]-ethyl}-2-methylphenyl)imidazo [1,5-a]pyrazin-3-yl]hexahydroindolizin-3(2H)-one]
678 nM	467 nM		Nc1nccn2c([C@@H]3CC[C@H]4CCC(=O)N4C3)nc(-c3ccc(C(O)(c4cccc(C(F)(F)F)c4)C(F)F)cc3)c12 (stereo partly drawn) [Example 108, (6R,8aS)-6-[8-amino-1-(4-{2,2-difluoro-1-hydroxy-1-[3-(trifluoromethyl)phenyl]ethyl}phenyl)imidazo [1,5-a]pyrazin-3-yl]hexahydroindolizin-3(2H)-one]
0.48 nM		619 nM	CCc1cccc([C@@](C)(O)c2ccc(-c3nc([C@@H]4CC[C@H]5CCC(=O)N5C4)n4ccnc(N)c34)cc2)c1 [Example 92, (6R,8aS)-6-(8-amino-1-{4-[(1S)-1-(3-ethylphenyl)-1-hydroxyethyl]phenyl}imidazo[1,5-a]pyrazin-3-yl)hexahydroindolizin-3(2H)-one]
0.63 nM		6000 nM	CCOc1cc([C@](C)(O)c2cccc(C(F)(F)F)c2)cc(F)c1-c1nc([C@@H]2CC[C@H]3CCC(=O)N3C2)n2ccnc(N)c12 [Example 213, (6R,8aS)-6-[8-amino-1-(2-ethoxy-6-fluoro-4-{(1R)-1-hydroxy-1-[3-(trifluoromethyl)phenyl]ethyl}phenyl)imidazo [1,5-a]pyrazin-3-yl]hexahydroindolizin-3(2H)-one]
5.1 nM		4670 nM	CC(C)N1CC(=O)N2C[C@@H](c3nc(-c4ccc([C@@](C)(O)c5cccc(C(F)(F)F)c5)cc4)c4c(N)nccn34)CC[C@@H]2C1 [Example 120, (7S,9aR)-7-[8-amino-1-(4-{(1R)-1-hydroxy-1-[3-(trifluoromethyl)phenyl]ethyl}phenyl)imidazo [1,5-a]pyrazin-3-yl]-2-(1-methylethyl)octahydro-4H-pyrido[1,2-a]pyrazin-4-one]
0.43 nM	2260 nM		CC1(C)C[C@@H]2CC[C@@H](c3nc(-c4ccc(C(C)(O)c5cccc(C(F)F)c5)cc4F)c4c(N)nccn34)CN2C1=O (stereo partly drawn) [Example 203, (6R,8aS)-6-[8-amino-1-(4-{1-[3-(difluoromethyl)phenyl]-1-hydroxyethyl}-2-fluorophenyl)imidazo[1,5-a]pyrazin-3-yl]-2,2-dimethylhexahydroindolizin-3(2H)-one]
10.1 nM		1190 nM	COc1cc(-c2nc([C@@H]3CC[C@H]4CCC(=O)N4C3)n3ccnc(N)c23)ccc1[C@@](C)(O)c1cccc(C2CC2)c1 [Example 99, (6R,8aS)-6-(8-amino-1-{4-[(1S)-1-(3-cyclopropylphenyl)-1-hydroxyethyl]-3-methoxyphenyl}imidazo [1,5-a]pyrazin-3-yl)hexahydroindolizin-3(2H)-one]
